Results: US9790173B2, “Alpha-7 nicotinic acetylcholine receptor modulators and uses thereof-I” (MERCK SHARP & DOHME CORP., priority 2012, dated 2017)

Target: T1, rat α7 nAChRs (Rattus norvegicus, UniProt Q05941)
T1 construct: expressed in transfected cells; host or cells: GH4C1 cells (rat pituitary line) stably expressing α7 nAChR
Experiment: Automated planar patch clamp (Patchliner) electrophysiology, α7 nAChR PAM activity
Type: cell-based
Parameters: key to Type I or Type II: I: Type 1 predominately affects the peak current; Type II modulators affect the peak current and also delay the desensitization of the receptor
Conditions: for Type I or Type II: modulator type based on the electrophysiology trace; for activation at 3 µM: GH4-C1, 3 μM compound in the presence of acetylcholine, GH4C1 cells expressing rat α7 nAChRs, peak current, read-out: Peak potentiation at 3 μM compound
Description: Tested compounds were prepared by serial dilutions of 10 mM stock solution in DMSO to concentrations of the compound 1000 times higher than its final concentration. The DMSO stock solutions were then diluted 1:100 in the recording buffer bringing DMSO concentration to 1%. These intermediate solutions were further diluted 10 times with buffer to obtain final concentrations and lower DMSO concentration to 0.1%. […]
Compounds of the invention may be evaluated by electrophysiology using a Patchliner® (Nanion Technologies GmbH, Germany), an automated planar patch-clamp platform of medium throughput was used as a first step in electrophysiological assessment of α7 nAChR positive allosteric modulators (PAMs).
Briefly, intracellular (KCl—50 mM, NaCl—10 mM, KF—60 mM, EGTA—20 mM, HEPES—10 mM, pH—7.2, 285 mOsmol) and extracellular (NaCl—140 mM, KCl—4 mM, CaCl2—2 mM, MgCl2—1 mM, HEPES—10 mM, D-Glucose—5 mM, pH—7.4, 298 mOsmol) solutions were automatically pipetted onto NPC-16 chip (medium resistance ˜2.5-2.6 MΩ). Suspension of GH4C1 cells expressing rat α7 nAChRs was introduced in 4 wells of a medium resistance chip and suction was applied to attract cells in the holes. The extracellular solution was subsequently exchanged to high calcium solution (NaCl—80 mM, KCl—3 mM, CaCl2—45 mM, HEPES—10 mM, pH—7.4, 298 mOsmol) followed by gigaohm seal formation and obtaining whole-cell configuration. The rest of protocol was carried out in the high-calcium recording solution. Holding potential was −70 mV throughout the protocol. A control response to 60 or 100 μM of ACh was obtained first. Next, a cell was pre-incubated with compound of interest at 3 μM for ˜30 s after which the compound was co-applied with acetylcholine.
Amplitude of the responses was measured in HEKA Patchmaster software (HEKA Elektronik, Germany) and percentage of potentiation calculated. Recording was repeated […] a minimum of two replicates had been obtained per compound.
Compounds shown in Table 1 were evaluated by automated planar patch clamp on the Patchliner® as described in Example P2.1. […] The compounds are designated either as Type I or Type II modulators based on the electrophysiology trace. Type 1 predominately affects the peak current. Type II modulators affect the peak current and also delay the desensitization of the receptor.

T1 sequence (Q05941 23-502): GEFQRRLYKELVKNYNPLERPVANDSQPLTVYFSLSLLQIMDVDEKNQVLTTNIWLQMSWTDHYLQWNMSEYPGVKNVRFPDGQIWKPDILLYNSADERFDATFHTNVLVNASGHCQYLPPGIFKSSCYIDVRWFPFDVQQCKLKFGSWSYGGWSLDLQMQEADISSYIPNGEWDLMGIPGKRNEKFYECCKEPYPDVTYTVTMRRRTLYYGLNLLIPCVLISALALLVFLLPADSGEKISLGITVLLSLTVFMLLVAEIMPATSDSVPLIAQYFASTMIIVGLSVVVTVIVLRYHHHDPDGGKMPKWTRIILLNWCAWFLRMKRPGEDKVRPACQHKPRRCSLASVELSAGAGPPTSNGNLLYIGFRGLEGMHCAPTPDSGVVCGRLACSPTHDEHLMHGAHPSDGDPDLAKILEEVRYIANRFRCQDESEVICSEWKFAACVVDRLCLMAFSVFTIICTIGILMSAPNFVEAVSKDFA

| SMILES | Type I or Type II | activation at 3 µM [%] |
| --- | --- | --- |
| CC1(C)C(c2ccc(S(N)(=O)=O)cc2)[C@H]1CNc1ccc(F)c(C(F)(F)F)c1 (mixture of isomers) [Example 33, ±trans 4-[3-({[4-fluoro-3-(trifluoromethyl)phenyl]amino}methyl)-2,2-dimethylcyclopropyl]benzenesulfonamide] | II |  |
| CC1(C)C(c2ccc(S(N)(=O)=O)cc2)[C@H]1CNc1ccc(F)cc1OC(F)F (mixture of isomers) [Example 34, ±trans 4-[3-({[2-(difluoromethoxy)-4-fluorophenyl]amino}methyl)-2,2-dimethylcyclopropyl]benzenesulfonamide] | II |  |
| CC(C)(C)c1cc(NC[C@@H]2C(c3ccc(S(N)(=O)=O)cc3)C2(C)C)no1 (mixture of isomers) [Example 35, ±trans 4-(3-{[(5-tert-butyl-1,2-oxazol-3-yl)amino]methyl)}2,2-dimethylcyclopropyl)benzenesulfonamide] | II | 57 |
| Cc1cc(F)ccc1NC[C@@H]1[C@@H](c2ccc(S(N)(=O)=O)cc2)C1(C)C (racemic) [Example 38, ±trans 4-[-3-{[(4-fluoro-2-methylphenyl)amino]methyl}-2,2-dimethylcyclopropyl]benzenesulfonamide] | II |  |
| COc1ccc(Cl)cc1NC[C@@H]1[C@@H](c2ccc(NS(C)(=O)=O)cc2)C1(C)C (racemic) [Example 46, ±trans N-{4-[3-{[(5-chloro-2-methoxyphenyl)amino]methyl}-2,2-dimethylcyclopropyl]phenyl}methanesulfonamide] | I | 783 |
| COc1ccc(Cl)cc1NC[C@@H]1[C@@H](c2ccc(NS(N)(=O)=O)cc2)C1(C)C (racemic) [Example 59, ±trans N-[4-(3-{[(5-chloro-2-methoxyphenyl)amino]methyl}-2,2-dimethylcyclopropyl)phenyl]sulfuric diamide] | I |  |
| CC1(C)[C@H](CNC2CCCCC2(F)F)[C@H]1c1ccc(S(N)(=O)=O)cc1 (relative stereo) [Example 62, trans 4-(3-{[(2,2-difluorocyclohexyl)amino]methyl}-2,2-dimethylcyclopropyl)benzenesulfonamide] | II | 38 |
| COc1ccc(Cl)cc1NC[C@@H]1[C@@H](c2ccc(NS(C)(=O)=O)cc2)C1(C)C (single isomer, unassigned; enantiomer a) [Example 47] | I | 867 |
| Cc1cc(F)ccc1NC[C@@H]1[C@@H](c2ccc(S(N)(=O)=O)cc2)C1(C)C (single isomer, unassigned; enantiomer a) [Example 57, Enantiomer A of trans 4-[3-{[(4-fluoro-2-methylphenyl)amino]methyl}-2,2-dimethylcyclopropyl]benzenesulfonamide] | I | 473 |
| Cc1cc(F)ccc1NC[C@H]1[C@H](c2ccc(S(N)(=O)=O)cc2)C1(C)C (single isomer, unassigned; enantiomer b) [Example 58, Enantiomer B of trans 4-[3-{[(4-fluoro-2-methylphenyl)amino]methyl}-2,2-dimethylcyclopropyl]benzenesulfonamide] | II |  |
| NS(=O)(=O)c1ccc([C@@H]2C[C@H]2CNc2cc(F)ccc2OC(F)(F)F)cc1 (stereo in doubt) [Example 53, 4-[(1R,2R)-2-({[5-fluoro-2-(trifluoromethoxy)phenyl]amino}methyl)cyclopropyl]benzenesulfonamide] | II |  |
| COc1ccc(Cl)cc1NC[C@H]1C[C@@H]1c1ccc(S(N)(=O)=O)cc1 [Example 1, ±trans 4-(2-{[(5-chloro-2-methoxyphenyl)amino]methyl}cyclopropyl)benzenesulfonamide] | II |  |
| NS(=O)(=O)c1ccc([C@H]2C[C@@H]2CNc2ccc(F)c(F)c2)cc1 [Example 2, ±trans 4-(2-{[(3,4-difluorophenyl)amino]methyl}cyclopropyl)benzenesulfonamide] | II |  |
| COc1ccc(Cl)cc1NC[C@@H]1[C@@H](c2ccc(S(N)(=O)=O)cc2)C1(C)C [Example 4, ±trans 4-(3-{[(5-chloro-2-methoxyphenyl)amino]methyl}-2,2-dimethylcyclopropyl)benzenesulfonamide] | II |  |
| CC1(C)[C@H](CNc2ccccc2)[C@H]1c1ccc(S(N)(=O)=O)cc1 [Example 5, ±trans 4-{2,2-dimethyl-3-[(phenylamino)methyl]cyclopropyl}benzenesulfonamide] | II |  |
| CN(C[C@@H]1[C@@H](c2ccc(S(N)(=O)=O)cc2)C1(C)C)c1ccccc1 [Example 6, ±trans 4-(2,2-dimethyl-{[methyl(phenyl)amino]methyl}cyclopropyl)benzenesulfonamide] | I | 506 |
| COc1ccc(Cl)cc1N(C)C[C@@H]1[C@@H](c2ccc(S(N)(=O)=O)cc2)C1(C)C [Example 7, ±trans 4-(3-{[(5-chloro-2-methoxyphenyl)(methyl)amino]methyl}-2,2-dimethylcyclopropyl)benzenesulfonamide] | I | 134 |
| COc1ccc(Cl)cc1NC[C@@H]1[C@@H](c2ccc(S(N)(=O)=O)cc2)C12CCCC2 [Example 8, ±trans 4-(2-{[(5-chloro-2-methoxyphenyl)amino]methyl}spiro[2.4]hept-1-yl)benzenesulfonamide] | II |  |
| CC1(C)[C@H](CNc2cncc(F)c2)[C@H]1c1ccc(S(N)(=O)=O)cc1 [Example 10, ±trans 4-[3-{[(5-fluoropyridin-3-yl)amino]methyl}-2,2-dimethylcyclopropyl]benzenesulfonamide] | II |  |
| CC1(C)[C@H](CNc2ccnc(C(F)(F)F)c2)[C@H]1c1ccc(S(N)(=O)=O)cc1 [Example 11, ±trans 4-[2,2-dimethyl-3-({[2-(trifluoromethyl)pyridin-4-yl]amino}methyl)cyclopropyl]benzenesulfonamide] | II | 15 |
| NS(=O)(=O)c1ccc([C@H]2C[C@@H]2CNc2ccc(C(F)(F)F)cn2)cc1 [Example 12, ±trans 4-[2-({[5-(trifluoromethyl)pyridin-2-yl]amino}methyl)cyclopropyl]benzenesulfonamide] | I | 401 |
| CC1(C)[C@H](CNc2ccc(F)c(F)c2)[C@H]1c1ccc(S(N)(=O)=O)cc1 [Example 14, ±trans 4-[3-{[(3,4-difluorophenyl)amino]methyl}-2,2-dimethylcyclopropyl]benzenesulfonamide] | II |  |
| CC1(C)[C@H](CNc2ccc(F)cc2C(F)(F)F)[C@H]1c1ccc(S(N)(=O)=O)cc1 [Example 15, 4-[(1R,3R)-3-({[4-fluoro-2-(trifluoromethyl)phenyl]amino}methyl)-2,2-dimethylcyclopropyl]benzenesulfonamide] | I | 413 |
| CC1(C)[C@H](CNc2cc(F)ccc2OCC(F)(F)F)[C@H]1c1ccc(S(N)(=O)=O)cc1 [Example 16, 4-[(1R,3R)-3-({[5-fluoro-2-(2,2,2-trifluoroethoxy)phenyl]amino}methyl)-2,2-dimethylcyclopropyl]benzenesulfonamide] | I | 236 |
| NS(=O)(=O)c1ccc([C@@H]2C[C@H]2CNc2ccc(F)cc2)cc1 [Example 18, 4-[(1R,2R)-2-{[(4-fluorophenyl)amino]methyl}cyclopropyl]benzenesulfonamide] | I |  |
| NS(=O)(=O)c1ccc([C@@H]2C[C@H]2CNc2ccc(C(F)(F)F)cn2)cc1 [Example 19, 4-[(1R,2R)-2-({[5-(trifluoromethyl)pyridin-2-yl]amino}methyl)cyclopropyl]benzenesulfonamide] | I | 762 |
